Assay results: the NIST ThermoML archive (doi:10.1021/je060271a)
Several values for one entry are separate records, joined by “and”; a condition that tells them apart may be missing. Equal entries are not always repeated.

Conditions: Liquid, Vibrating tube method

CCCCCC(=O)OCC(COC(=O)CCCCC)(COC(=O)CCCCC)COC(=O)CCCCC [pentaerythritol tetrahexanoate]
Conditions	mass density
303.16 K, 25121 kPa	1003.6 kg/m3
303.16 K, 25156 kPa	1003.5 kg/m3
303.16 K, 25186 kPa	1003.6 kg/m3
303.16 K, 25221 kPa	1003.6 kg/m3
303.16 K, 25252 kPa	1003.7 kg/m3
303.16 K, 25282 kPa	1003.6 kg/m3
303.16 K, 25674 kPa	1003.8 kg/m3
303.16 K, 25700 kPa	1003.9 kg/m3
303.16 K, 25725 kPa	1003.8 kg/m3
303.16 K, 25756 kPa	1003.9 kg/m3
303.16 K, 25781 kPa	1004 kg/m3
303.16 K, 25807 kPa	1003.9 kg/m3
303.16 K, 25838 kPa	1004 kg/m3
303.16 K, 25863 kPa	1004 kg/m3
303.16 K, 25889 kPa	1004 kg/m3
303.16 K, 28629 kPa	1005.5 kg/m3
303.16 K, 28934 kPa	1005.7 kg/m3
303.16 K, 28965 kPa	1005.6 kg/m3
303.16 K, 28991 kPa	1005.6 kg/m3
303.16 K, 29017 kPa	1005.6 kg/m3
303.16 K, 29049 kPa	1005.7 kg/m3
303.16 K, 29076 kPa	1005.7 kg/m3
303.16 K, 29102 kPa	1005.7 kg/m3
303.16 K, 29134 kPa	1005.8 kg/m3
303.16 K, 29162 kPa	1005.6 kg/m3
303.16 K, 29189 kPa	1005.7 kg/m3
303.16 K, 29220 kPa	1005.8 kg/m3
303.16 K, 29244 kPa	1005.8 kg/m3
303.16 K, 29266 kPa	1005.9 kg/m3
303.16 K, 29288 kPa	1005.9 kg/m3
303.16 K, 29315 kPa	1005.9 kg/m3
303.16 K, 29338 kPa	1005.9 kg/m3
303.16 K, 29360 kPa	1005.9 kg/m3
303.16 K, 29388 kPa	1005.8 kg/m3
303.16 K, 29410 kPa	1006 kg/m3
303.16 K, 29438 kPa	1005.9 kg/m3
303.16 K, 30312 kPa	1006.3 kg/m3
303.16 K, 30341 kPa	1006.5 kg/m3
303.16 K, 30365 kPa	1006.5 kg/m3
303.16 K, 30389 kPa	1006.5 kg/m3
303.16 K, 30419 kPa	1006.6 kg/m3
303.16 K, 30445 kPa	1006.4 kg/m3
303.16 K, 30470 kPa	1006.4 kg/m3
303.16 K, 30494 kPa	1006.6 kg/m3
303.16 K, 30523 kPa	1006.6 kg/m3
303.16 K, 30548 kPa	1006.6 kg/m3
303.16 K, 30572 kPa	1006.6 kg/m3
303.16 K, 30602 kPa	1006.5 kg/m3
303.16 K, 30627 kPa	1006.6 kg/m3
303.16 K, 30652 kPa	1006.6 kg/m3
303.16 K, 30681 kPa	1006.5 kg/m3
303.16 K, 30706 kPa	1006.7 kg/m3
303.16 K, 30731 kPa	1006.5 kg/m3
303.16 K, 30761 kPa	1006.7 kg/m3
303.16 K, 30788 kPa	1006.6 kg/m3
303.16 K, 30813 kPa	1006.6 kg/m3
303.16 K, 30838 kPa	1006.7 kg/m3
303.16 K, 30868 kPa	1006.7 kg/m3
303.16 K, 30893 kPa	1006.6 kg/m3
303.16 K, 30923 kPa	1006.7 kg/m3
303.16 K, 30949 kPa	1006.7 kg/m3
303.16 K, 30974 kPa	1006.7 kg/m3
303.16 K, 31005 kPa	1006.9 kg/m3
303.16 K, 31031 kPa	1006.7 kg/m3
303.16 K, 31057 kPa	1006.7 kg/m3
303.16 K, 31087 kPa	1006.8 kg/m3
303.16 K, 31114 kPa	1006.8 kg/m3
303.16 K, 31140 kPa	1006.9 kg/m3
303.16 K, 32264 kPa	1007.5 kg/m3
303.16 K, 32284 kPa	1007.6 kg/m3
303.16 K, 32306 kPa	1007.5 kg/m3
303.16 K, 32325 kPa	1007.5 kg/m3
303.16 K, 32343 kPa	1007.5 kg/m3
303.16 K, 32366 kPa	1007.5 kg/m3
303.16 K, 32385 kPa	1007.4 kg/m3
303.16 K, 32914 kPa	1007.8 kg/m3
303.16 K, 32937 kPa	1007.9 kg/m3
303.16 K, 32956 kPa	1007.7 kg/m3
303.16 K, 32976 kPa	1007.7 kg/m3
303.16 K, 33185 kPa	1007.9 kg/m3
303.16 K, 33209 kPa	1008 kg/m3
303.16 K, 33228 kPa	1008 kg/m3
303.16 K, 33252 kPa	1007.9 kg/m3
303.16 K, 33272 kPa	1008.1 kg/m3
303.16 K, 33292 kPa	1008 kg/m3
303.16 K, 33317 kPa	1007.9 kg/m3
303.16 K, 33337 kPa	1008.1 kg/m3
303.16 K, 33357 kPa	1008.1 kg/m3
303.16 K, 33377 kPa	1008.1 kg/m3
303.16 K, 33402 kPa	1008.1 kg/m3
303.16 K, 33423 kPa	1008 kg/m3
303.16 K, 33443 kPa	1008.1 kg/m3
303.16 K, 33467 kPa	1008.1 kg/m3
303.16 K, 33487 kPa	1008.1 kg/m3
303.16 K, 33512 kPa	1008.1 kg/m3
303.16 K, 33533 kPa	1008.1 kg/m3
303.16 K, 33553 kPa	1008.1 kg/m3
303.16 K, 33574 kPa	1008.3 kg/m3
303.16 K, 33599 kPa	1008.2 kg/m3
303.16 K, 33621 kPa	1008.2 kg/m3
303.16 K, 33642 kPa	1008.3 kg/m3
303.16 K, 33668 kPa	1008.3 kg/m3
303.16 K, 33689 kPa	1008.3 kg/m3
303.16 K, 33711 kPa	1008.2 kg/m3
303.16 K, 33733 kPa	1008.1 kg/m3
303.16 K, 33759 kPa	1008.2 kg/m3
303.16 K, 33782 kPa	1008.3 kg/m3
303.16 K, 33805 kPa	1008.2 kg/m3
303.16 K, 33833 kPa	1008.2 kg/m3
303.16 K, 33857 kPa	1008.4 kg/m3
303.16 K, 33886 kPa	1008.2 kg/m3
303.17 K, 238.4 kPa	988.6 kg/m3
303.17 K, 238.6 kPa	988.5 kg/m3
303.17 K, 239.1 kPa	988.5 kg/m3
303.17 K, 272.8 kPa	988.5 kg/m3
303.17 K, 273 kPa	988.7 kg/m3
303.17 K, 273.3 kPa	988.6 kg/m3
303.17 K, 273.5 kPa	988.6 kg/m3
303.17 K, 273.6 kPa	988.6 kg/m3
303.17 K, 355.5 kPa	988.6 kg/m3
303.17 K, 355.8 kPa	988.5 kg/m3
303.17 K, 356.5 kPa	988.6 kg/m3
303.17 K, 356.8 kPa	988.5 kg/m3
303.17 K, 357.2 kPa	988.6 kg/m3
303.17 K, 357.5 kPa	988.6 kg/m3
303.17 K, 361 kPa	988.7 kg/m3
303.17 K, 361.7 kPa	988.5 kg/m3
303.17 K, 362 kPa	988.6 kg/m3
303.17 K, 362.4 kPa	988.5 kg/m3
303.17 K, 362.7 kPa	988.6 kg/m3
303.17 K, 363.1 kPa	988.6 kg/m3
303.17 K, 363.8 kPa	988.7 kg/m3
303.17 K, 364 kPa	988.7 kg/m3
303.17 K, 375.4 kPa	988.5 kg/m3
303.17 K, 376.3 kPa	988.6 kg/m3
303.17 K, 376.5 kPa	988.7 kg/m3 and 988.6 kg/m3
303.17 K, 377.2 kPa	988.6 kg/m3
303.17 K, 378.5 kPa	988.6 kg/m3
303.17 K, 1469.1 kPa	989.4 kg/m3
303.17 K, 1484.4 kPa	989.2 kg/m3
303.17 K, 1497.4 kPa	989.2 kg/m3
303.17 K, 1510.5 kPa	989.4 kg/m3
303.17 K, 1526.6 kPa	989.4 kg/m3
303.17 K, 1540 kPa	989.3 kg/m3
303.17 K, 1553.5 kPa	989.4 kg/m3
